Laboratory results as given in publication PMC8292346, “Dysfunction of the key ferroptosis-surveilling systems hypersensitizes mice to tubular necrosis during acute kidney injury” (Nature Communications, 2021).
“And” between values parts separate entries of the source, which are not always exact repeats. Equal entries are not always repeated.

Assays:
dopamine transporter(h) = dopamine transporter(h) (Homo sapiens, UniProt Q01959); assay: Off-target radioligand binding screen; settings: read-out: dopamine transporter(h) ($): inhibition of radioligand binding
Sequence of dopamine transporter(h) (Q01959 whole entry): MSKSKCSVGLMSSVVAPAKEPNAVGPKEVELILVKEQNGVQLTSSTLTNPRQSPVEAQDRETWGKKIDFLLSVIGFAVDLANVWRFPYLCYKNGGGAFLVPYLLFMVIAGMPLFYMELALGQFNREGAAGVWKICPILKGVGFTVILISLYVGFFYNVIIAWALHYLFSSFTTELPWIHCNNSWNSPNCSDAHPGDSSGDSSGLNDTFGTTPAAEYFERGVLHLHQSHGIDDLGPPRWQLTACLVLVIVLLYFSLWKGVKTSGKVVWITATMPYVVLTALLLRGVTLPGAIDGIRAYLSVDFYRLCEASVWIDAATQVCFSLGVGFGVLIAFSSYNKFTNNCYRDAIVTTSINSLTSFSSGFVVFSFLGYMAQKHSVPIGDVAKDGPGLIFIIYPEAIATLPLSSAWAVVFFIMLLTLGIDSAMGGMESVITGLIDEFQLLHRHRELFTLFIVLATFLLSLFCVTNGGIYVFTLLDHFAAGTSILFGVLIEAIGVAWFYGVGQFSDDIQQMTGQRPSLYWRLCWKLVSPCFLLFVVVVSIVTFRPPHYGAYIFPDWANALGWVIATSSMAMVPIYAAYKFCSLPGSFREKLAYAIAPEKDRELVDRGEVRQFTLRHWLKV

μ (MOP) (h) = μ (MOP) (h) (Homo sapiens, UniProt P35372); assay: Off-target radioligand binding screen; settings: read-out: μ (MOP) (h) (#): inhibition of radioligand binding
GR (h) = GR (h) (Homo sapiens, UniProt P04150); assay: Off-target radioligand binding screen; settings: read-out: GR (h) (#): inhibition of radioligand binding, Nec-1f 10 µM
N neuronal α4β2 (h) = N neuronal α4β2 (h) (Homo sapiens, UniProt P17787+P43681); assay: Off-target radioligand binding screen; settings: read-out: N neuronal α4β2 (h) (#): inhibition of radioligand binding
Sequence of N neuronal α4β2 (h) (P43681 29-627 limits assumed): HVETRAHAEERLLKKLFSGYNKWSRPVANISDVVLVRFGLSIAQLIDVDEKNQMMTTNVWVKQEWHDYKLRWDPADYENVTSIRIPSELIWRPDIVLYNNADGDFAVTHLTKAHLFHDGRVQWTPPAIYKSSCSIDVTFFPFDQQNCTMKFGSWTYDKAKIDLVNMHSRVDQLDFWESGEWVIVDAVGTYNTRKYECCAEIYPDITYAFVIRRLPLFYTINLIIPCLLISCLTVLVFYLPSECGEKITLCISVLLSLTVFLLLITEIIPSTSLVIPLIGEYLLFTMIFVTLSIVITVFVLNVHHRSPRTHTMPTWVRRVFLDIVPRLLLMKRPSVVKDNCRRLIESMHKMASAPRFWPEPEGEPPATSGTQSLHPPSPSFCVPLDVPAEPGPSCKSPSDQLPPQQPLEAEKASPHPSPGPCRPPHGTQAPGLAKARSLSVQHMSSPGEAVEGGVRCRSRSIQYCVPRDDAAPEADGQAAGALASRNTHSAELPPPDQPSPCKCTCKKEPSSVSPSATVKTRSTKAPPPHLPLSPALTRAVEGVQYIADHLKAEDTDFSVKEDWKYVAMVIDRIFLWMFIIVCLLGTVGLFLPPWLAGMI
Sequence of N neuronal α4β2 (h) (P17787 26-502): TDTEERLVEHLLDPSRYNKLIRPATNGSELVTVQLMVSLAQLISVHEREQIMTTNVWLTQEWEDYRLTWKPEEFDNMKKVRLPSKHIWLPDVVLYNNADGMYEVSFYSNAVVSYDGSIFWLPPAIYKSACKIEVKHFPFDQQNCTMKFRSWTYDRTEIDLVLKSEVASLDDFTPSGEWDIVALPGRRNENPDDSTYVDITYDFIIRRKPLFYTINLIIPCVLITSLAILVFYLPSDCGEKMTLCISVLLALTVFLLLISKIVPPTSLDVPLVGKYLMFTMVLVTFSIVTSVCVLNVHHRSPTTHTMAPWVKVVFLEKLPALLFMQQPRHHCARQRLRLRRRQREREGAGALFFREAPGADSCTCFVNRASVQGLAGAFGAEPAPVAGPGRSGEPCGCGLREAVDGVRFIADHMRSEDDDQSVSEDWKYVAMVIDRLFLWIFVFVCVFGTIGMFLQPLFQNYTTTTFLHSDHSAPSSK

5-HT transporter (h) = 5-HT transporter (h) (Homo sapiens, UniProt P31645); assay: Off-target radioligand binding screen; settings: read-out: 5-HT transporter (h) ($): inhibition of radioligand binding
Sequence of 5-HT transporter (h) (P31645 whole entry, the tested form may be a part): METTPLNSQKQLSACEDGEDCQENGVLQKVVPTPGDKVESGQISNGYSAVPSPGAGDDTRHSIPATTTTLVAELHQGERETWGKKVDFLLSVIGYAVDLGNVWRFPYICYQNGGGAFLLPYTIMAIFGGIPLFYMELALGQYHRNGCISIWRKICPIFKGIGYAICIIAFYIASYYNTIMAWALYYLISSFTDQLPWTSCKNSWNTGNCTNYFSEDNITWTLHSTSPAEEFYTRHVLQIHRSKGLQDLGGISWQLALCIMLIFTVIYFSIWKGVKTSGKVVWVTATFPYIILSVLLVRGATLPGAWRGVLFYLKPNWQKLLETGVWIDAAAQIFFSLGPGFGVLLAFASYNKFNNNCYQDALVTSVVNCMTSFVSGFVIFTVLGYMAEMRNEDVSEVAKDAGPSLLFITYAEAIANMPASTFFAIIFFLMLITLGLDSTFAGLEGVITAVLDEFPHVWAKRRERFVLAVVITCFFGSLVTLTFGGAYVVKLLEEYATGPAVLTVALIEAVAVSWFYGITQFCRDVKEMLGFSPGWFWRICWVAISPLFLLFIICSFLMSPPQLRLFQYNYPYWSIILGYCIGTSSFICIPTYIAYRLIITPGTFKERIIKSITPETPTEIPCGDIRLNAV

C57Bl/6 N mice = assay: Bilateral kidney ischemia-reperfusion injury, moderate model (30 min ischemia); format: in vivo, mouse
Description: Otherwise, the two models are identical.

M2 (h) = M2 (h) (Homo sapiens, UniProt P08172); assay: Off-target radioligand binding screen; settings: read-out: M2 (h) ($): inhibition of radioligand binding
Sequence of M2 (h) (P08172 whole entry): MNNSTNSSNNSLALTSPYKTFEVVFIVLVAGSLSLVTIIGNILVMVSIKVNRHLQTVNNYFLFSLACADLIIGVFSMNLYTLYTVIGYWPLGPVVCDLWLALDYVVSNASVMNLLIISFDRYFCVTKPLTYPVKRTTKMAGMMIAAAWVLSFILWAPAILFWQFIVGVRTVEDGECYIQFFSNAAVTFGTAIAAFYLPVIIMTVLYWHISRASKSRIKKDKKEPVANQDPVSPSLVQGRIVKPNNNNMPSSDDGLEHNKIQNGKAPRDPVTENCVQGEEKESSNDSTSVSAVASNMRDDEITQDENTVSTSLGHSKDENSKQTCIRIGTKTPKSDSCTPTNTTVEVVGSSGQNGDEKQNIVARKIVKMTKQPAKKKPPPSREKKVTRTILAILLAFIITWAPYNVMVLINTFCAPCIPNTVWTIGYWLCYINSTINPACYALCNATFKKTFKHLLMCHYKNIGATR

AR(h) = assay: Off-target radioligand binding screen; settings: Nec-1f 10 µM
kappa (h) (KOP) = kappa (h) (KOP) (Homo sapiens, UniProt P41145); assay: Off-target radioligand binding screen; settings: read-out: kappa (h) (KOP) (#): inhibition of radioligand binding
Sequence of kappa (h) (KOP) (P41145 whole entry): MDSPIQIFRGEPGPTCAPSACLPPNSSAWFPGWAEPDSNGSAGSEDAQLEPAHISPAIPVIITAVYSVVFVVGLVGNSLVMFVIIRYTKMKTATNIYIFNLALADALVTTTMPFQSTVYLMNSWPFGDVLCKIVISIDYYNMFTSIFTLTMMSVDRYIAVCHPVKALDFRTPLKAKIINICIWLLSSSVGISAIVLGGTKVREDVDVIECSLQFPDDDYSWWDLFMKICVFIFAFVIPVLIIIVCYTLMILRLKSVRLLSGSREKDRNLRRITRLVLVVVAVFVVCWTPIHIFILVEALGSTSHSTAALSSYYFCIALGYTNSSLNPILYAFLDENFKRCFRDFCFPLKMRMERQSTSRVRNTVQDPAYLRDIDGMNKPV

[1] = system: Ca2+ channel (L, dihydropyridine site); assay: Off-target radioligand binding screen; settings: Nec-1f 10 µM
β2(h) = β2(h) (Homo sapiens, UniProt P07550); assay: Off-target radioligand binding screen; settings: read-out: β2(h) ($): inhibition of radioligand binding
Sequence of β2(h) (P07550 whole entry): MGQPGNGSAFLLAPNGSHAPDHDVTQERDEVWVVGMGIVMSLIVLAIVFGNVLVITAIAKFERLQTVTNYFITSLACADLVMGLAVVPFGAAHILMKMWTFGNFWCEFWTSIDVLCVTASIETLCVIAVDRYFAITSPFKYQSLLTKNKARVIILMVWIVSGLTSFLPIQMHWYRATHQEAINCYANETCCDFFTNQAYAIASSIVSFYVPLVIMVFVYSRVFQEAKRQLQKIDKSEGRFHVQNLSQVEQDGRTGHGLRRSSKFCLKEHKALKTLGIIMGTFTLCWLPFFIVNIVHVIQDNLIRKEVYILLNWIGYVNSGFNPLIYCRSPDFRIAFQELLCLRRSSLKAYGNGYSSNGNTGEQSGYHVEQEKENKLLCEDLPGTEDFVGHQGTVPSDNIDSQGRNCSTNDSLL

C57BL/6N mice = assay: Acute oxalate nephropathy (CaOx-induced AKI); format: in vivo, mouse
Protocol: C57BL/6N mice were procured from Charles River Laboratories (Sulzfeld, Germany) and co-housed in groups of four in filter top cages with unlimited access to food and water. Cages, nestlets, food, and water were sterilized by autoclaving before use. Mice received a single intraperitoneal (i.p.) injection of 100 mg/kg sodium oxalate (Santa Cruz Biotechnology) and 3% sodium oxalate in drinking water and kidneys were harvested after 24 h. […] Blood and kidneys were collected at sacrifice by cervical dislocation. The middle section of each kidney was fixed for 24 h in formalin to be embedded in paraffin for histological analysis. Intrarenal crystal precipitations were quantified by Pizzolato staining. The experimental procedure was approved by the Regierung von Oberbayern, München, Germany (ROB-55.2-2532.Vet_02-18-127).
The tubular injury was scored by detecting the percentage of necrotic structures, dilated tubules, casts and cellular infiltrates per HPF. To do so a grid with a raster size of 2.5% of the total image area was imposed on top of each image and the number of squares covering either of the histopathological features was counted individually or as a composite (summary score). Pizzolato’s staining visualized calcium oxalate crystals and crystal deposit formation in the kidney was evaluated the following: no deposits = 0 point; crystals in papillary tip = 1 point; crystals in cortical medullary junction = 2 points; crystals in cortex = 3 points.
A TUNEL kit (Cell death detection kit, Roche) was used to quantify the number of cells with DNA strand breaks per HPF. The green fluorescent area was measured and the number of stained cells per slide was counted.

β1(h) = β1(h) (Homo sapiens, UniProt P08588); assay: Off-target radioligand binding screen; settings: read-out: β1(h) (#): inhibition of radioligand binding
Sequence of β1(h) (P08588 whole entry): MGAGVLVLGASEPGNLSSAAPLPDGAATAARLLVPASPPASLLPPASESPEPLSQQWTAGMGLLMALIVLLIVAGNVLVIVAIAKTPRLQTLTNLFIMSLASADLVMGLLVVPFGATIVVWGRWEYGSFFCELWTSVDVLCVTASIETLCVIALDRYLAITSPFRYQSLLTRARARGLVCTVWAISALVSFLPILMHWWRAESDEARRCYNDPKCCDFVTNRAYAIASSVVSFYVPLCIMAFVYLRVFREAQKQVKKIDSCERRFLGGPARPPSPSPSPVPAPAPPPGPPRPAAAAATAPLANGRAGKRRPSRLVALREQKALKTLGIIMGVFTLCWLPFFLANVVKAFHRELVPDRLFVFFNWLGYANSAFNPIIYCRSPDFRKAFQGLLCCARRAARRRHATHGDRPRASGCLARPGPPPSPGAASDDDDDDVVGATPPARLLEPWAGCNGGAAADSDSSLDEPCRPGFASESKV

MAO-A = MAO-A (Rattus norvegicus, UniProt P21396); assay: Off-target radioligand binding screen; settings: read-out: MAO-A ($): inhibition of radioligand binding
Sequence of MAO-A (P21396 whole entry): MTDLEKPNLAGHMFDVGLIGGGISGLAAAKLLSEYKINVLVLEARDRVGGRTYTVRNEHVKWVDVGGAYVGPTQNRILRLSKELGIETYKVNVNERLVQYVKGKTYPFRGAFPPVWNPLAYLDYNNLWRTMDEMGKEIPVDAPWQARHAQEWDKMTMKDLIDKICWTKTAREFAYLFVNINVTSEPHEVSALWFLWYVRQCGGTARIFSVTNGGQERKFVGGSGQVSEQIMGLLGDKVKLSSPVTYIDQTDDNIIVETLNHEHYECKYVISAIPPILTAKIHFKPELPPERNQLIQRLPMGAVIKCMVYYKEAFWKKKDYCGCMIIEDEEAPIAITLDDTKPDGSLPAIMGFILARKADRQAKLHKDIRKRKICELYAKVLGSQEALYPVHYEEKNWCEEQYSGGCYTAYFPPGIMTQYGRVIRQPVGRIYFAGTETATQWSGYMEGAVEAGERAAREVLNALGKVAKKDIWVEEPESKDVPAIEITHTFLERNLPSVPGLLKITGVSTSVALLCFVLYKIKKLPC

5-HT1A(h) = 5-HT1A(h) (Homo sapiens, UniProt P08908); assay: Off-target radioligand binding screen; settings: read-out: 5-HT1A(h) (#): inhibition of radioligand binding
Na+ channel (site 2) = assay: Off-target radioligand binding screen; settings: Nec-1f 10 µM
5-HT1B (h) = 5-HT1B (h) (Homo sapiens, UniProt P28222); assay: Off-target radioligand binding screen; settings: read-out: 5-HT1B (h) ($): inhibition of radioligand binding
Sequence of 5-HT1B (h) (P28222 whole entry): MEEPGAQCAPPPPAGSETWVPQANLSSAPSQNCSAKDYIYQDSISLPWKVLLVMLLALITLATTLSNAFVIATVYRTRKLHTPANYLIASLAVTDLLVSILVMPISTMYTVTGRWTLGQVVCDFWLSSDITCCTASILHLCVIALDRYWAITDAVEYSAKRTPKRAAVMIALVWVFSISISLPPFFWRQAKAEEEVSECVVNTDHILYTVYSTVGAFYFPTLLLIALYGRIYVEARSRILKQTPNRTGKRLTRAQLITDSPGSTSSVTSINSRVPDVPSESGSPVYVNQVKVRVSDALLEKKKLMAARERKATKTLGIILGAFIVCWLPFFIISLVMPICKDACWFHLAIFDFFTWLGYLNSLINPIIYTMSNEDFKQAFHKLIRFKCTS

[2] = Nec-1f - sham, individual animals
[3] = Nec-1f, 48 h after onset of reperfusion, individual animals
[4] = Nec-1f, 72 h after onset of reperfusion, individual animals
[5] = kidney IRI, 1.65 mg/kg i.p. 15 min before
[6] = mice, bilateral kidney IRI, Nec-1f 1.65 mg/kg i.p. 15 min before, individual animals
[7] = mice, kidney IRI, Nec-1f, individual animals
[8] = 24 h after CaOx, 1.65 mg/kg Nec-1f, individual animals, 1.65 mg/kg

Question: With `CN1C(=O)C(Cc2c[nH]c3c(Cl)cccc23)NC1=S` (stereo not shown) [Nec-1f] as the compound, how does the inhibition at 10 µM (dopamine transporter(h)) read?
Answer: 34.3%

Question: And the inhibition at 10 µM (μ (MOP) (h))?
Answer: 15.8%

Question: And the inhibition at 10 µM (GR (h))?
Answer: ≥ 50%

Question: What about the inhibition at 10 µM (N neuronal α4β2 (h)) of the same compound?
Answer: 3.6%

Question: And the inhibition at 10 µM (5-HT transporter (h))?
Answer: -5.9%

Question: And the Serum creatinine (C57Bl/6 N mice; [2])?
Answer: 23 µmol/L and 17 µmol/L

Question: And the Serum urea (C57Bl/6 N mice; [2])?
Answer: 5.5 mmol/L and 5.6 mmol/L

Question: And the Serum creatinine (C57Bl/6 N mice; [3])?
Answer: 28 µmol/L and 95 µmol/L and 52 µmol/L and 60 µmol/L and 40 µmol/L and 74 µmol/L and 33 µmol/L and 35 µmol/L and 39 µmol/L

Question: And the Serum urea (C57Bl/6 N mice; [3])?
Answer: 19.1 mmol/L and 76 mmol/L and 75 mmol/L and 43.6 mmol/L and 50.1 mmol/L and 32.1 mmol/L and 57 mmol/L and 22.5 mmol/L and 16.7 mmol/L and 34.1 mmol/L and 24.8 mmol/L

Question: What about the Serum creatinine (C57Bl/6 N mice; [4]) of the same compound?
Answer: 79 µmol/L and 31 µmol/L and 63 µmol/L and 46 µmol/L and 53 µmol/L and 44 µmol/L

Question: And the Serum urea (C57Bl/6 N mice; [4])?
Answer: 30.9 mmol/L and 8.8 mmol/L and 20.2 mmol/L and 18.9 mmol/L and 37.3 mmol/L and 16.4 mmol/L

Question: What about the “4HNE staining of renal tissue” value (C57Bl/6 N mice; [5]) of the same compound?
Answer: attenuated

Question: What about the “Infiltration of macrophages (F4/80) in the renal medulla” value (C57Bl/6 N mice; [5]) of the same compound?
Answer: significantly less infiltration

Question: What about the “Serum creatinine vs vehicle” value (C57Bl/6 N mice; [5]) of the same compound?
Answer: lower than in the vehicle-treated mice

Question: What about the “Serum urea vs vehicle” value (C57Bl/6 N mice; [5]) of the same compound?
Answer: lower than in the vehicle-treated mice

Question: What about the “Tubular damage vs vehicle” value (C57Bl/6 N mice; [5]) of the same compound?
Answer: lower than in the vehicle-treated mice

Question: What about the “4HNE score, arbitrary [0-3] (sheet FigS2d)” value (C57Bl/6 N mice; kidney IRI, column headed Nec-1f) of the same compound?
Answer: 1.6 and 1.4

Question: And the “4HNE staining score, arbitrary [0-3]” value (C57Bl/6 N mice; [6])?
Answer: 0.6 and 1.6 and 1.8 and 0.8 and 1.2

Question: And the “Tubular damage score, arbitrary [0-10]” value (C57Bl/6 N mice; [6])?
Answer: 5 and 7 and 4

Question: And the “F4/80 positivity, quantitative (Fig6i)” value (C57Bl/6 N mice; [7])?
Answer: 8.8 cells/field and 7.8 cells/field and 20.3 cells/field and 16.2 cells/field and 20.8 cells/field

Question: And the “F4/80 positivity, quantitative (Fig6h)” value (C57Bl/6 N mice; [7])?
Answer: 3.45 cells/field and 6.077 cells/field and 9.25 cells/field and 7.125 cells/field and 9.0625 cells/field

Question: And the inhibition at 10 µM (M2 (h))?
Answer: -1.7%

Question: And the “AR(h) (#): inhibition of radioligand binding” value (AR(h))?
Answer: 12.2%

Question: And the inhibition at 10 µM (kappa (h) (KOP))?
Answer: 16%

Question: What about the “Ca2+ channel (L, dihydropyridine site) ($): inhibition of radioligand binding” value [1] of the same compound?
Answer: 40%

Question: What about the inhibition at 10 µM (β2(h)) of the same compound?
Answer: 1.4%

Question: And the “CaOx crystal deposition vs vehicle” value (C57BL/6N mice; 1.65 mg/kg body weight)?
Answer: comparable in both groups

Question: What about the “Tubular injury vs vehicle” value (C57BL/6N mice; 1.65 mg/kg body weight) of the same compound?
Answer: reduced tubular injury

Question: And the Serum creatinine (C57BL/6N mice; [8])?
Answer: 75 µmol/L and 84 µmol/L and 73 µmol/L and 71 µmol/L and 67 µmol/L and 78 µmol/L and 89 µmol/L and 69 µmol/L

Question: What about the Serum urea (C57BL/6N mice; [8]) of the same compound?
Answer: 70.6 mmol/L and 52 mmol/L and 57.6 mmol/L and 47.8 mmol/L and 51.8 mmol/L and 64.8 mmol/L and 59.8 mmol/L

Question: And the “Number of TUNEL-positive cells vs vehicle” value (C57BL/6N mice; CaOx)?
Answer: significantly decreased

Question: What about the “Serum creatinine vs vehicle” value (C57BL/6N mice; CaOx, 1.65 mg/kg) of the same compound?
Answer: lower concentrations

Question: What about the “Serum urea vs vehicle” value (C57BL/6N mice; CaOx, 1.65 mg/kg) of the same compound?
Answer: lower concentrations

Question: What about the TUNEL (C57BL/6N mice; kidneys 24 h after onset of CaOx treatment, Nec-1f, individual animals) of the same compound?
Answer: 12.5 positive cells per HPF and 23.5 positive cells per HPF and 14 positive cells per HPF and 17 positive cells per HPF and 9.5 positive cells per HPF and 16 positive cells per HPF and 15 positive cells per HPF

Question: What about the “Tubular injury (PAS)” value (C57BL/6N mice; sodium oxalate, 1.65 mg/kg Nec-1f, individual animals, 1.65 mg/kg) of the same compound?
Answer: 5.4 % area per HPF and 19.2 % area per HPF and 9 % area per HPF and 17.2 % area per HPF and 7.8 % area per HPF and 11.7 % area per HPF and 12.7 % area per HPF

Question: What about the inhibition at 10 µM (β1(h)) of the same compound?
Answer: 3.7%

Question: What about the inhibition at 10 µM (MAO-A) of the same compound?
Answer: 44.4%

Question: What about the inhibition at 10 µM (5-HT1A(h)) of the same compound?
Answer: 9.1%

Question: And the “Na+ channel (site 2) ($): inhibition of radioligand binding” value (Na+ channel (site 2))?
Answer: -14.5%

Question: What about the inhibition at 10 µM (5-HT1B (h)) of the same compound?
Answer: -12.9%
